Test results taken from patent US20060185411A1, “Calcium polysulfide, potassium polysulfide, calcium thiosulfate, and magnesium thiosulfate as urease inhibitors” (Tessenderlo Kerley, Inc., priority 2005, published 2006).
Like-named read-outs stand apart in the source and are kept apart here.

Tests used:
[1] = pH of the solutions of urea and additive compound; format: physicochemical; details: urea-only solution
[2] = tested on: urease; details: Example 6
[3] = tested on: urease; test: Ammonia volatilization from soil-applied urea solution with additive compound (continuous air purge, ammonia collected in sulfuric acid, indophenol blue method)
Method: (§1) The amount of additive compound set forth in Table 1 below was added to a solution of reagent grade urea having a urea concentration of 13850 micrograms of nitrogen per 2 ml, together with the desired amount of compound. This urea concentration was selected to be equivalent to an application rate of 100 lbs of nitrogen per acre. A standard sample containing only urea in the same concentration and an unfertilized blank (2 ml of distilled water) also were applied to soil.
The amounts of additive compound were calculated to provide the desired quantity of that compound appropriate for application of a 50 percent w/v solution of urea (i.e., 50 grams of urea per 100 ml of water) to supply 100 lbs of nitrogen per acre. Each additive compound was used at 5 and 10 percent of the volume of urea solution. The treatments were therefore equivalent to the application 198 liters (52.3 US gallons) of urea solution per acre together with 9.9 liters (2.6 US gallons) of additive compound at the low rate or 19.8 liters (5.2 US Gallons) at the high rate.
Soil was treated and ammonia measurements were taken in accordance with the following method. Plastic containers with a diameter of 4.2 cm were used for this study. Each container was filled with 60 g of a sandy soil and moistened with 12 mls water to 86% of its water holding capacity. All treatments were surface applied in 2 mls of solution, bringing the moisture level up to field capacity.
The air was humidified before introduction by bubbling it through distilled water, then passing it through a cotton plug to remove moisture droplets. Evolved ammonia was collected by passing the air through 50 mls of 0.5 M sulfuric acid. This was sufficient to collect 3 times the total amount of nitrogen added, ensuring that the solution never became saturated with ammonia. The amounts of ammonia collected in the sulfuric acid solutions were determined by the indophenol blue method.
Ammonia measurements were taken at 2 and 7 days after application. […] The amounts of ammonia collected are expressed as a percentage of the total that was applied.
as §1, with “Table 3” for “Table 1”
The amounts of additive compound were calculated to provide the desired quantity of that compound appropriate for application of a 50 percent w/v solution of urea (i.e., 50 grams of urea per 100 ml of water) to supply 100 lbs of nitrogen per acre. The urea and additive compounds were applied to soil in accordance with the method described in Example 1.
Calcium polysulfide solution was added at a rate of 1, 2, 4 and 8 percent of the volume of urea solution. K-Sul® was added at a rate of 5 and 10 percent of the volume of urea solution. Ammonia measurements were taken at 2 and 7 days after application. […] The amounts of ammonia collected are expressed as a percentage of the total that was applied.
In each treatment, the appropriate amount of product was added to a solution of reagent grade urea and made to 100 mls in volumetric flasks. Concentrations were adjusted to ensure that the 2 mls of each solution provided 13850 micrograms of nitrogen together with the required amount of product to provide the equivalent of an application rate of 100 lbs of nitrogen per acre. A standard sample contained only urea and an unfertilized blank was treated with 2 mls of distilled water.

[4] = tested on: nitrification; details: combination with UAN or banded urea solution; literature; cited from earlier work
[5] = tested on: soil urease; details: surface application of urea; literature; cited from earlier work
[6] = Example 1, urea only, no additive
[7] = Example 3, urea only, no additive
[8] = Example 5, urea only, no additive

Compound: NC(N)=O [Urea]
- Solution pH ([1]; Example 2): 8.4
- Solution pH ([1]; Example 4): 9.0
- % of N applied ([2]; 100 lbs N per ac): 2.07%
- Ammonia collected, mg Day 2 ([2]; 100 lbs N per ac): 0.14 mg
- Ammonia collected, mg Day 7 ([2]; 100 lbs N per ac): 2.32 mg
- Ammonia collected, mg Day 14 ([2]; 100 lbs N per ac): 0.78 mg
- Ammonia collected, mg Day 21 ([2]; 100 lbs N per ac): 0.00 mg
- Ammonia collected, mg Day 28 ([2]; 100 lbs N per ac): 0.00 mg
- Ammonia collected, mg Total ([2]; 100 lbs N per ac): 3.25 mg
- % of N applied ([2]; 200 lbs N per ac): 3.17%
- Ammonia collected, mg Day 2 ([2]; 200 lbs N per ac): 0.31 mg
- Ammonia collected, mg Day 7 ([2]; 200 lbs N per ac): 4.86 mg
- Ammonia collected, mg Day 14 ([2]; 200 lbs N per ac): 4.31 mg
- Ammonia collected, mg Day 21 ([2]; 200 lbs N per ac): 0.47 mg
- Ammonia collected, mg Day 28 ([2]; 200 lbs N per ac): 0.00 mg
- Ammonia collected, mg Total ([2]; 200 lbs N per ac): 9.94 mg
- % Loss 0-2 days [3, 6]: 22.0%
- % Loss 3-7 days [3, 6]: 3.9%
- % Loss Total [3, 6]: 25.9%
- % lost 0-2 days [3, 7]: 25.56%
- % lost 3-7 days [3, 7]: 11.45%
- % lost Total [3, 7]: 37.01%
- % lost 0-2 days [3, 8]: 25.50%
- % lost 3-7 days [3, 8]: 8.25%
- % lost Total [3, 8]: 33.75%

Compound: ammonium polyphosphate
- effect on nitrification (in words) [4]: only a weak effect

Compound: ammonium polysulfide
- effect on nitrification (in words) [4]: no effect on nitrification
- urease inhibition and ammonia volatilization inhibition, comparison between products (in words) ([3]; summary of Examples 1-4): less urease inhibition activity than calcium polysulfide

Compound: [Ca+2].[Cl-].[Cl-] [Calcium chloride]
- effect on ammonia volatilization (in words) [5]: delays the start of ammonia volatilization
